Data: patent US20240254547A1, “HIGHLY ACCURATE […]” (KAO CORPORATION, priority 2018, published 2024)

Tests used:
[1] = system: TA100 strain of Salmonella typhimurium (S. typhimurium) LT-2; assay: Ames test (pre-incubation method), number of revertant colonies; format: cell-based; settings: for Number of revertant colonies in Ames test, Mean: mean of three plates
Description: (§1) Exposure of cells to ENU was performed in accordance with the pre-incubation method of the Ames test (K. Mortelmans et al. Mutat. Res.—Fundam. Mol. Mech. Mutagen. 455:29-60, 2000). TA100 strain was seeded in 2 mL of Nutrient Broth No. 2 (produced by Oxoid Limited), and subjected to shaking culture at 37° C. and 180 rpm for 4 hours to afford pre-culture solution with an O.D.660 value of 1.0 or higher. ENU (produced by Sigma-Aldrich Co. LLC.) was diluted with dimethylsulfoxide (DMSO; produced by Wako Pure Chemical Industries, Ltd.). Into test tubes, 100 μL of the ENU solution, 500 μL of 0.1 M phosphate buffer, and 100 μL of the pre-culture solution were added (amount of ENU: 62.5, 125, 250, 500, and 1,000 μg/tube), and the resultants were subjected to shaking culture at 100 rpm in a water bath at 37° C. for 20 minutes (ENU group). For a control group, 100 μL of solvent (DMSO) was added instead of the ENU solution. After shaking culture for 20 minutes, the test tubes each containing a culture solution were taken out of the water bath, and 50 μL of each culture solution was added to 2 mL of Nutrient Broth solution aliquoted in advance, and the resultant was further cultured in an incubator at 37° C. and 180 rpm for 14 hours, from which the bacterial suspensions were then collected and centrifuged at 7,500 rpm for 5 minutes, and the supernatants were removed to collect the bacterial cells.
For the Ames test, a bacterial suspension exposed to ENU by using the pre-incubation method was produced under the above-described conditions, and 2 mL of top agar (containing 1% NaCl, 1% agar, 0.05 mM histidine, and 0.05 mM biotine) warmed to 45° C. was added thereto and the resultant was suspended by using a Vortex, and poured onto a minimal glucose agar medium (Tesmedia® AN; produced by Oriental Yeast Co., Ltd.) to form a layer. The resulting plate was subjected to culturing at 37° C. for 48 hours, and the number of colonies observed was counted.

[2] = system: Genomic DNA from TA100 strain of Salmonella typhimurium (S. typhimurium) LT-2; assay: Genomic mutation analysis of mutagen-exposed TA100 strain by sequencing with consensus read sequences considering complementary strands; format: cell-based; settings: ENU group
Description: as §1
From the bacterial cells obtained in 1) (control group and ENU group), total DNA was collected by using a DNeasy Blood & Tissue Kit (produced by QIAGEN) in accordance with the recommended protocol. The double-stranded DNA concentration of each DNA sample obtained was measured by using a Qubit3.0 Fluorometer (produced by Thermo Fisher Scientific) with a Qubit™ dsDNA BR Assay Kit attached thereto.
From each DNA sample (control group and ENU group) after being subjected to concentration measurement in 2), a plurality of samples each of which was to give 100 ng of DNA were prepared, and each sample was fragmented into pieces having a length of approximately 350 bp on average by using a DNA Shearing System ME220 (produced by Covaris Inc.) in accordance with the recommended protocol. The fragmented DNA obtained was subjected to library preparation by using a TruSeq Nano DNA Library Prep Kit (produced by Illumina, Inc., hereinafter abbreviated as TruSeq) in accordance with the recommended protocol.
In library preparation, the DNA fragments obtained were each labeled with adapter sequences each including a label sequence at a terminal, as described in Example 1. The resultant was subjected to PCR under different conditions listed in Table 1 to prepare libraries for sequencing, thus preparing labeled libraries for sequencing with different conditions. Adapter sequences attached to the TruSeq from Illumina, Inc. were used. […] Thus, one of two adapters was bound to each fragment in each library. […] Each of the resulting ligation reaction solutions was purified in accordance with the recommended protocol, and then subjected to concentration measurement for ligation products by using a High Sensitivity D5000 Kit in an Agilent 4200 TapeStation (produced by Agilent Technologies). […] The mixed solution obtained was subjected to purification through PCR in accordance with the recommended protocol. To adjust difference in amount of input DNA in PCR, each sample was amplified through PCR cycles the number of which is shown in Table 1 to adjust the amount of DNA in the library.
Each of the libraries prepared in 3) was subjected to sequencing by using a HiSeq 2500 (produced by Illumina, Inc.), where the read length was set to 2*125 bp for Library Nos. 1 to 8 shown in Table 1, and to 2*100 bp for Library Nos. 9 to 14. Sequencing data of approximately 10 Gbp were acquired on average per library.
Raw read sequences acquired through sequencing were edited and subjected to mutation analysis in accordance with the analysis flow illustrated above in Schematic Diagram 4. […]

CCN(N=O)C(N)=O [ENU, ethylnitrosourea] was tested, and the “Number of revertant colonies after exposure to ENU versus DMSO control” value ([1]; 62.5 to 1,000 μg/plate) was “increase”, the “Number of revertant colonies in Ames test, Mean” value (shortened to “Number … Mean”) ([1]; ENU 62.5 μg/plate) was 207.3 and the “Number of revertant colonies in Ames test” value ([1]; ENU 62.5 μg/plate, plate 1) was 220. For the same compound, the “Number of revertant colonies in Ames test” value ([1]; ENU 62.5 μg/plate, plate 2) was 192, the “Number of revertant colonies in Ames test” value ([1]; ENU 62.5 μg/plate, plate 3) was 210 and the “Number … Mean” value ([1]; ENU 125 μg/plate) was 381.3. The “Number of revertant colonies in Ames test” value ([1]; ENU 125 μg/plate, plate 1) was 430, the “Number of revertant colonies in Ames test” value ([1]; ENU 125 μg/plate, plate 2) was 391 and the “Number of revertant colonies in Ames test” value ([1]; ENU 125 μg/plate, plate 3) was 323. The “Number … Mean” value ([1]; ENU 250 μg/plate) was 1389.0, the “Number of revertant colonies in Ames test” value ([1]; ENU 250 μg/plate, plate 1) was 1482 and the “Number of revertant colonies in Ames test” value ([1]; ENU 250 μg/plate, plate 2) was 1359. For the same compound, the “Number of revertant colonies in Ames test” value ([1]; ENU 250 μg/plate, plate 3) was 1326, the “Number … Mean” value ([1]; ENU 500 μg/plate) was 3960.7 and the “Number of revertant colonies in Ames test” value ([1]; ENU 500 μg/plate, plate 1) was 4095. The “Number of revertant colonies in Ames test” value ([1]; ENU 500 μg/plate, plate 2) was 4006, the “Number of revertant colonies in Ames test” value ([1]; ENU 500 μg/plate, plate 3) was 3751 and the “Number … Mean” value ([1]; ENU 1000 μg/plate) was 2534.0. For the same compound, the “Number of revertant colonies in Ames test” value ([1]; ENU 1000 μg/plate, plate 1) was 1659, the “Number of revertant colonies in Ames test” value ([1]; ENU 1000 μg/plate, plate 2) was 3206 and the “Number of revertant colonies in Ames test” value ([1]; ENU 1000 μg/plate, plate 3) was 2737. For the same compound, the “GC to AT mutation frequency” value ([2]; 10 Gbp sequencing data, Library No. 1, PCR input DNA 20000 amol) was 10.48 /10^5 bp, the “GC to AT mutation frequency” value ([2]; 10 Gbp sequencing data, Library No. 4, PCR input DNA 2500 amol) was 37.70 /10^5 bp and the “GC to AT mutation frequency” value ([2]; 10 Gbp sequencing data, Library No. 5, PCR input DNA 1250 amol) was 46.50 /10^5 bp. The “GC to AT mutation frequency” value ([2]; 10 Gbp sequencing data, Library No. 6, PCR input DNA 625 amol) was 55.30 /10^5 bp, the “GC to AT mutation frequency” value ([2]; 10 Gbp sequencing data, Library No. 7, PCR input DNA 313 amol) was 56.57 /10^5 bp and the “GC to AT mutation frequency” value ([2]; 10 Gbp sequencing data, Library No. 8, PCR input DNA 156 amol) was 60.42 /10^5 bp. The “GC to AT mutation frequency” value ([2]; 10 Gbp sequencing data, Library No. 9, PCR input DNA 156 amol) was 61.01 /10^5 bp, the “GC to AT mutation frequency” value ([2]; 10 Gbp sequencing data, Library No. 10, PCR input DNA 78 amol) was 63.62 /10^5 bp and the “GC to AT mutation frequency” value ([2]; 10 Gbp sequencing data, Library No. 11, PCR input DNA 39 amol) was 63.38 /10^5 bp. For the same compound, the “GC to AT mutation frequency” value ([2]; 10 Gbp sequencing data, Library No. 12, PCR input DNA 20 amol) was 63.89 /10^5 bp, the “GC to AT mutation frequency” value ([2]; 10 Gbp sequencing data, Library No. 13, PCR input DNA 10 amol) was 63.35 /10^5 bp and the “GC to AT mutation frequency” value ([2]; 10 Gbp sequencing data, Library No. 14, PCR input DNA 5 amol) was 60.05 /10^5 bp. The “Frequency of GC→AT mutation compared with the other mutation patterns” value ([2]; 10 Gbp sequencing data, each library) was “highest”, the “Relative mutation frequency to 20 amol (GC to AT)” value (“Relative mutation frequency” for short) ([2]; Library No. 1, PCR input DNA 20000 amol) was 16.41 and the “Relative mutation frequency” value ([2]; Library No. 4, PCR input DNA 2500 amol) was 59.01. For the same compound, the “Relative mutation frequency” value ([2]; Library No. 5, PCR input DNA 1250 amol) was 72.79, the “Relative mutation frequency” value ([2]; Library No. 6, PCR input DNA 625 amol) was 86.56 and the “Relative mutation frequency” value ([2]; Library No. 7, PCR input DNA 313 amol) was 88.55. For the same compound, the “Relative mutation frequency” value ([2]; Library No. 8, PCR input DNA 156 amol) was 94.57, the “Relative mutation frequency” value ([2]; Library No. 9, PCR input DNA 156 amol) was 95.50 and the “Relative mutation frequency” value ([2]; Library No. 10, PCR input DNA 78 amol) was 99.59. The “Relative mutation frequency” value ([2]; Library No. 11, PCR input DNA 39 amol) was 99.20, the “Relative mutation frequency” value ([2]; Library No. 12, PCR input DNA 20 amol (reference)) was 100.00 and the “Relative mutation frequency” value ([2]; Library No. 13, PCR input DNA 10 amol) was 99.16. For the same compound, the “Relative mutation frequency” value ([2]; Library No. 14, PCR input DNA 5 amol) was 94.00.
